Test results as given in patent US20240165074A1, “COMPOSITION OF THE PHYTOCOMPOUNDS INTENDED TO ENHANCE CYTOTOXIC ACTIVITY IN THE TREATMENT OF ACUTE LYMPHOBLASTIC LEUKEMIA” (GDANSKI UNIWERSYTET MEDYCZNY, priority 2021, published 2024).
Where two headings read alike, the source gives them in different places.

Experiments:
[1] = test system: MOLT-4 (the line of human ALL leukemia); assay: MTT viability test on MOLT-4 cells; assay type: cell-based; details: for time after which viability of MOLT-4 neoplastic cells was reduced: bioavailable dose (1×), MTT; for impact on viability of MOLT-4 cells: even at doses attainable exclusively in vitro (2×)
Experimental: (§1) 1. Viability Test Comprising the Use of a Test Cell Line (Cultures in the Presence of Individual Phytochemicals or their Mix) and the Control Line
(§2) The test is based on an assessment of the enzymatic activity of mitochondria using MTT, 3-(4,5-Dimethylthiazol-2-yl)-2,5-diphenyltetrazolium) bromide. Live and metabolically active cells reduce MTT to formazan crystals. In the test, a 96-well plate was seeded with […] per well in the volume of 50 μl of standard culture medium, followed by the addition of serial dilutions of the analysed compounds in the volume of 50 μl of the culture medium to obtain the final volume of 100 μl. An identical quantity of the solvent without the analysed phytocompounds was added to the control wells. The phytocompounds were stored dissolved in 100% DMSO, and therefore each dilution and the culture media added for control were supplemented with DMSO up to the non-toxic final concentration of 0.05%. The viability of the cells was assessed after a specific incubation time (24-, 48-, or 72-hours) by adding 20 μl of the yellow MTT solution to each well, and the colorimetric conversion of MTT into purple formazan crystals was assessed after 2-3 hours of incubation by dissolving the crystals with acidic isopropanol and taking a spectrophotometric measurement at the wavelength of 570 nm.
The measurements of cell viability with the application of this assay were performed on the following lines: MOLT-4 (the line of human ALL leukemia, a standard cell line used to assess the effects of pharmaceutical compounds on this type of leukemias) and BJ (human foreskin fibroblasts, primary cells grown in a short-term culture).

[2] = defines dose 1×; cited from earlier work
[3] = test system: BJ (human foreskin fibroblasts); assay: MTT viability test on BJ control cells; assay type: cell-based; details: 0.5×, 1×, 2×; 24 and 72 hours (FIG. 2)
Experimental: as §1
as §2, with “nm. […]” for “nm.”

For COc1cc(/C=C/C(=O)CC(=O)/C=C/c2ccc(O)c(OC)c2)ccc1O [curcumin], the “cytotoxicity to MOLT-4 cells” value [1] is given as “relatively highly cytotoxic”, the “time after which viability of MOLT-4 neoplastic cells was reduced” value ([1]; single compound) is given as 72 h and the “maximum level of bioavailability of the compound in the blood” value (from here on “maximum level”) [2] is given as 2.25 µg/mL.
For O=c1c(-c2ccc(O)cc2)coc2cc(O)cc(O)c12 [genistein], the “time after which the biological effect (reduced MOLT-4 viability) was attained” value ([1]; dose 0.5×) was 72 hours, the “time after which viability of MOLT-4 neoplastic cells was reduced” value ([1]; single compound) was 48 h and the “cytotoxicity to MOLT-4 cells” value ([1]; single compound, dose 2×) was “relatively highly cytotoxic”. For the same compound, the “viability of BJ cells” value [3] was “do not decrease the viability” and the “maximum level” value [2] was 3 µg/mL.
In the case of O=c1c(O)c(-c2ccc(O)c(O)c2)oc2cc(O)cc(O)c12 [quercetin], the “impact on viability of MOLT-4 cells” value ([1]; single compound) is given as “did not demonstrate any impact on the viability” and the “maximum level” value [2] is given as 1.5 µg/mL.
In the case of Oc1ccc(C=Cc2cc(O)cc(O)c2)cc1 [resveratrol], the “impact on viability of MOLT-4 cells” value ([1]; single compound) is listed as “did not demonstrate any impact on the viability” and the “maximum level” value [2] is listed as 0.5 µg/mL.
